ChEMBL document CHEMBL1201862, “PubChem BioAssay data set” (2004)
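All cell lines were grown in 96-well plates and treated with compound for 48 hours. Here, GI50 denotes the concentration required for 50% inhibition of growth.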 Active and inactive are the calls of the source. Cut-off read from the data, not from the text of the source: active = GI50 up to about 1.1 µM and inactive = higher.

What was measured:
Assay in all cases: NCI tumour cell line growth inhibition, 48 h
HCC 2998 = system: HCC 2998
SF-539 = system: SF-539
OVCAR-4 = system: OVCAR-4
BT-549 = system: BT-549
OVCAR-3 = system: OVCAR-3
A549 = system: A549
SR = system: SR
MDA-MB-231 = system: MDA-MB-231
OVCAR-5 = system: OVCAR-5
UO-31 = system: UO-31
SK-MEL-5 = system: SK-MEL-5
SK-MEL-28 = system: SK-MEL-28
A498 = system: A498
SF-295 = system: SF-295
NCI/ADR-RES = system: NCI/ADR-RES
SW-620 = system: SW-620
EKVX = system: EKVX
SF-268 = system: SF-268
T47D = system: T47D
NCI-H522 = system: NCI-H522

Cc1cc([C@H](C#N)c2nc3ccccc3s2)nc(Cl)n1
GI50 (HCC 2998): 4.86 µM (inactive) | GI50 (SF-539): 4.92 µM (inactive) | GI50 (OVCAR-4): 5.82 µM (inactive) | GI50 (BT-549): 3.94 µM (inactive) | GI50 (OVCAR-3): 4.84 µM (inactive) | GI50 (A549): 14.8 µM (inactive) | GI50 (SR): 1.31 µM (inactive) | GI50 (MDA-MB-231): 3 µM (inactive) | GI50 (OVCAR-5): 16.3 µM (inactive) | GI50 (UO-31): 4.39 µM (inactive) | GI50 (SK-MEL-5): 1.79 µM (inactive) | GI50 (SK-MEL-28): 6.67 µM (inactive) | GI50 (A498): 15.2 µM (inactive) | GI50 (SF-295): 15.5 µM (inactive) | GI50 (NCI/ADR-RES): 3.08 µM (inactive) | GI50 (SW-620): 3.04 µM (inactive) | GI50 (EKVX): 18.6 µM (inactive) | GI50 (SF-268): 5.01 µM (inactive) | GI50 (T47D): 2.92 µM (inactive)

Nc1ccccc1/N=C/c1cc2cc([N+](=O)[O-])ccc2s1
GI50 (HCC 2998): 19.3 µM (inactive) | GI50 (SF-539): 12.1 µM (inactive) | GI50 (BT-549): 12.5 µM (inactive) | GI50 (OVCAR-3): 14 µM (inactive) | GI50 (A549): 8.47 µM (inactive) | GI50 (SR): 11 µM (inactive) | GI50 (MDA-MB-231): 16.3 µM (inactive) | GI50 (OVCAR-5): 32.7 µM (inactive) | GI50 (UO-31): 15.7 µM (inactive) | GI50 (SK-MEL-5): 21.4 µM (inactive) | GI50 (SK-MEL-28): 22 µM (inactive) | GI50 (NCI-H522): 15.1 µM (inactive) | GI50 (A498): 10.4 µM (inactive) | GI50 (SF-295): 21.9 µM (inactive) | GI50 (NCI/ADR-RES): 32.1 µM (inactive) | GI50 (SW-620): 29.5 µM (inactive) | GI50 (EKVX): 18.6 µM (inactive) | GI50 (SF-268): 14.6 µM (inactive) | GI50 (T47D): 4.13 µM (inactive)

COC(=O)C(=O)C(C(=O)C(=O)Nc1ccc([N+](=O)[O-])cc1[N+](=O)[O-])c1nc2ccc(Cl)cc2nc1O (stereo unspecified)
GI50 (HCC 2998): > 100 µM (inactive) | GI50 (SF-539): > 100 µM (inactive) | GI50 (OVCAR-4): 27.1 µM (inactive) | GI50 (BT-549): > 100 µM (inactive) | GI50 (OVCAR-3): > 100 µM (inactive) | GI50 (A549): > 100 µM (inactive) | GI50 (SR): > 100 µM (inactive) | GI50 (MDA-MB-231): 50.2 µM (inactive) | GI50 (OVCAR-5): > 100 µM (inactive) | GI50 (UO-31): 80.4 µM (inactive) | GI50 (SK-MEL-5): > 100 µM (inactive) | GI50 (SK-MEL-28): > 100 µM (inactive) | GI50 (A498): > 100 µM (inactive) | GI50 (SF-295): > 100 µM (inactive) | GI50 (NCI/ADR-RES): 87.3 µM (inactive) | GI50 (SW-620): > 100 µM (inactive) | GI50 (SF-268): 74.1 µM (inactive) | GI50 (T47D): > 100 µM (inactive)

COC1C(O)=C2C(=O)O/C(C)=C/C=C/C=C/C=C\CC(c3ccccc3)NC(=O)\C=C/C=C\C=C\C=C\[C@@]2(C)[C@@H]1O (stereo partly specified)
GI50 (SF-539): < 0.01 µM (active) | GI50 (OVCAR-4): 0.0444 µM (active) | GI50 (BT-549): < 0.01 µM (active) | GI50 (OVCAR-3): < 0.0189 µM (active) | GI50 (A549): < 0.01 µM (active) | GI50 (SR): < 0.0125 µM (active) | GI50 (MDA-MB-231): < 0.01 µM (active) | GI50 (OVCAR-5): 0.0234 µM (active) | GI50 (UO-31): < 0.0161 µM (active) | GI50 (SK-MEL-5): 0.0395 µM (active) | GI50 (SK-MEL-28): 0.0155 µM (active) | GI50 (NCI-H522): < 0.01 µM (active) | GI50 (A498): 0.0129 µM (active) | GI50 (SF-295): < 0.01 µM (active) | GI50 (NCI/ADR-RES): < 0.01 µM (active) | GI50 (SW-620): < 0.01 µM (active) | GI50 (EKVX): 0.0357 µM (active) | GI50 (SF-268): < 0.028 µM (active) | GI50 (T47D): 0.0239 µM (active)

CC(C)=CC[C@H]1C[C@]2(CC=C(C)C)C(=O)[C@@](CC=C(C)C)(C(=O)C(C(=O)c3ccccc3)=C2O)C1(C)C [6-EPI-CLUSIANONE]
GI50 (HCC 2998): 3.85 µM (inactive) | GI50 (SF-539): 11.6 µM (inactive) | GI50 (OVCAR-4): 5.15 µM (inactive) | GI50 (BT-549): 8.93 µM (inactive) | GI50 (A549): 4.94 µM (inactive) | GI50 (SR): 8.65 µM (inactive) | GI50 (MDA-MB-231): 6.01 µM (inactive) | GI50 (OVCAR-5): 4.98 µM (inactive) | GI50 (UO-31): 3.44 µM (inactive) | GI50 (SK-MEL-5): 4.53 µM (inactive) | GI50 (SK-MEL-28): 10.2 µM (inactive) | GI50 (NCI-H522): 5.38 µM (inactive) | GI50 (A498): 9.46 µM (inactive) | GI50 (SF-295): 4.27 µM (inactive) | GI50 (NCI/ADR-RES): 5.33 µM (inactive) | GI50 (SW-620): 6.28 µM (inactive) | GI50 (EKVX): 5.05 µM (inactive) | GI50 (SF-268): 10.2 µM (inactive) | GI50 (T47D): 5.2 µM (inactive)

Oc1ccc(CCNCc2cc3c(cc2Br)OCO3)cc1
GI50 (SF-539): 4.17 µM (inactive) | GI50 (BT-549): 92.5 µM (inactive) | GI50 (OVCAR-3): 30.1 µM (inactive) | GI50 (A549): > 100 µM (inactive) | GI50 (SR): 32.4 µM (inactive) | GI50 (MDA-MB-231): 55.3 µM (inactive) | GI50 (OVCAR-5): > 100 µM (inactive) | GI50 (UO-31): 55.7 µM (inactive) | GI50 (SK-MEL-5): 27.1 µM (inactive) | GI50 (SK-MEL-28): 37.2 µM (inactive) | GI50 (NCI-H522): 39.4 µM (inactive) | GI50 (A498): 50 µM (inactive) | GI50 (SF-295): 65.2 µM (inactive) | GI50 (NCI/ADR-RES): 47.5 µM (inactive) | GI50 (SW-620): > 100 µM (inactive) | GI50 (EKVX): > 100 µM (inactive) | GI50 (SF-268): > 100 µM (inactive) | GI50 (T47D): 41.4 µM (inactive)

C1=N\CCNCC/N=C\c2ccc(cc2)OCc2cccc(n2)COc2ccc/1cc2
GI50 (SF-539): 47.1 µM (inactive) | GI50 (OVCAR-4): 97.3 µM (inactive) | GI50 (BT-549): 66.4 µM (inactive) | GI50 (OVCAR-3): > 100 µM (inactive) | GI50 (A549): > 100 µM (inactive) | GI50 (SR): > 100 µM (inactive) | GI50 (MDA-MB-231): 30.7 µM (inactive) | GI50 (OVCAR-5): > 100 µM (inactive) | GI50 (UO-31): > 100 µM (inactive) | GI50 (SK-MEL-5): 65.8 µM (inactive) | GI50 (SK-MEL-28): > 100 µM (inactive) | GI50 (NCI-H522): 26.9 µM (inactive) | GI50 (A498): > 100 µM (inactive) | GI50 (SF-295): 24.7 µM (inactive) | GI50 (NCI/ADR-RES): 63.1 µM (inactive) | GI50 (SW-620): > 100 µM (inactive) | GI50 (EKVX): > 100 µM (inactive) | GI50 (SF-268): 22.2 µM (inactive) | GI50 (T47D): > 100 µM (inactive)
